This passage reports Water solubility and EC50 results from patent publication US20190290650A1, “FORMULATIONS/COMPOSITIONS COMPRISING A BTK INHIBITOR” (Janssen Pharmaceutic NV, priority 2016, published 2019).

The conditions of series [1]: general statement, no test described; cited from earlier work.
In another series the test system is OCI-Ly10. As to the kind of experiment: Growth inhibition of OCI-Ly10 (ABC-DLBCL) cells. To be noted: Homo sapiens. It counts as cell-based. The text has this:
See U.S. Pat. No. 7,711,492 and Staudt et al., Nature, Vol. 463, Jan. 7, 2010, pp. 88-92, the contents of which are incorporated by reference in their entirety.

By EC50 is commonly meant the concentration at which the effect is half-maximal.

Read-outs that look alike come from different tables or passages of the source.

Turning to `C=CC(=O)N1CCC[C@@H](n2nc(-c3ccc(Oc4ccccc4)cc3)c3c(N)ncnc32)C1` [Compound 1, 1-((R)-3-(4-amino-3-(4-phenoxyphenyl)-1H-pyrazolo[3,4-d]pyrimidin-1-yl)piperidin-1-yl)prop-2-en-1-one], the Water solubility result in series [1] was “very low water solubility”. Further, the EC50 with OCI-Ly10 (continuous exposure, read-out: EC50 continuous exposure (growth of OCI-Ly10)) stood at 10 nM; with OCI-Ly10 (read-out: EC50 1 hour pulse (growth of OCI-Ly10), 1 hour pulse) it was 50 nM.
